Experimental data: PubChem BioAssay AID248 (DTP/NCI, 2004)
Several values for one entry are separate records, joined by “and”; a condition that tells them apart may be missing. Equal values may be shown once. Toxic doses and inconclusive results are not listed. Cut-off read from the data, not from the text of the source: active = T/C of 150% or more; inactive = T/C below 125%.

System: L1210 leukemia ip in BDF1 mice, survival T/C
Assay: NCI In Vivo Anticancer Drug Screen. Data for tumor model L1210 Leukemia (intraperitoneal) in B6D2F1 (BDF1) mice
Conditions: endpoint: mean survival time, higher = longer survival
Summary of the method: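 In this screen, tumor-bearing mice given compound are compared to those given vehicle, and their survival values are reported as a treated-to-control quotient.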

[1] = dose: 100.0 mg/kg/injection, schedule: Q01DX001 (ip), vehicle: saline
[2] = dose: 200.0 mg/kg/injection, schedule: Q01DX001 (ip), vehicle: saline
[3] = dose: 400.0 mg/kg/injection, schedule: Q01DX001 (ip), vehicle: saline
[4] = dose: 100.0 mg/kg/injection, schedule: Q01DX001 (ip), vehicle: carboxymethylcellulose (CMC)
[5] = dose: 200.0 mg/kg/injection, schedule: Q01DX001 (ip), vehicle: carboxymethylcellulose (CMC)
[6] = dose: 400.0 mg/kg/injection, schedule: Q01DX001 (ip), vehicle: carboxymethylcellulose (CMC)
[7] = dose: 100.0 mg/kg/injection, schedule: Q04DX003 (ip), vehicle: Klucel (hydroxypropylcellulose) (HPC)
[8] = dose: 200.0 mg/kg/injection, schedule: Q04DX003 (ip), vehicle: Klucel (hydroxypropylcellulose) (HPC)
[9] = dose: 400.0 mg/kg/injection, schedule: Q04DX003 (ip), vehicle: Klucel (hydroxypropylcellulose) (HPC)
[10] = dose: 100.0 mg/kg/injection, schedule: Q01DX009 (ip), vehicle: saline with Tween-80
[11] = dose: 200.0 mg/kg/injection, schedule: Q01DX009 (ip), vehicle: saline with Tween-80
[12] = dose: 100.0 mg/kg/injection, schedule: Q04DX003 (ip), vehicle: saline
[13] = dose: 200.0 mg/kg/injection, schedule: Q04DX003 (ip), vehicle: saline
[14] = dose: 400.0 mg/kg/injection, schedule: Q04DX003 (ip), vehicle: saline
[15] = dose: 100.0 mg/kg/injection, schedule: Q01DX009 (ip), vehicle: Klucel (hydroxypropylcellulose) (HPC)
[16] = dose: 200.0 mg/kg/injection, schedule: Q01DX009 (ip), vehicle: Klucel (hydroxypropylcellulose) (HPC)
[17] = dose: 100.0 mg/kg/injection, schedule: Q01DX009 (ip), vehicle: saline
[18] = dose: 200.0 mg/kg/injection, schedule: Q01DX009 (ip), vehicle: saline
[19] = dose: 400.0 mg/kg/injection, schedule: Q01DX009 (ip), vehicle: saline
[20] = dose: 100.0 mg/kg/injection, schedule: Q04DX002 (ip), vehicle: saline with Tween-80
[21] = dose: 200.0 mg/kg/injection, schedule: Q04DX002 (ip), vehicle: saline with Tween-80
[22] = dose: 400.0 mg/kg/injection, schedule: Q01DX009 (ip), vehicle: saline with Tween-80

Measured: T/C

Cc1c(C(C)(C)c2ccccc2)[nH]c2ccc(C(C)(C)c3ccccc3)cc12
inactive: [1] 88 % of control | [2] 86 % of control | [3] 96 % of control

CS(=O)(=O)Oc1c(Br)cc(Br)c2cccnc12
inactive: [4] 104 % of control | [5] 98 % of control | [6] 98 % of control

CS(=O)(=O)Cc1ccc([N+](=O)[O-])cc1
inactive: [7] 103 % of control | [8] 109 % of control | [9] 103 % of control

CC(=O)Cc1cc(=O)[nH]c(=O)[nH]1
inactive: [10] 95 % of control | [11] 89 % of control

N#CC(C#N)=C(C#N)c1cccn1Cc1ccccc1
inactive: dose: 87.5 mg/kg/injection, schedule: Q01DX009 (ip), vehicle: carboxymethylcellulose (CMC) 96 % of control | dose: 175.0 mg/kg/injection, schedule: Q01DX009 (ip), vehicle: carboxymethylcellulose (CMC) 95 % of control | dose: 350.0 mg/kg/injection, schedule: Q01DX009 (ip), vehicle: carboxymethylcellulose (CMC) 90 % of control

CC(C)CP(=O)(CC(C)C)C1CCCC1
inactive: dose: 100.0 mg/kg/injection, schedule: Q01DX001 (ip), vehicle: saline with Tween-80 100 % of control | dose: 200.0 mg/kg/injection, schedule: Q01DX001 (ip), vehicle: saline with Tween-80 105 % of control

C[CH2][Ge]1([CH2]C)[CH2]CC2(C[CH2]1)NC(=O)N(CCCN(C)C)C2=O
inactive: dose: 100.0 mg/kg/injection, schedule: Q04DX002 (ip), vehicle: saline 100 % of control | dose: 200.0 mg/kg/injection, schedule: Q04DX002 (ip), vehicle: saline 105 % of control

CCOP(=O)(Cc1ccccc1)OCC
inactive: [12] 110 % of control | [13] 103 % of control | [14] 98 % of control

O=C1OC(=O)C2=C1C1C3C=CCC3C2N2C=CC=CC12 (stereo unspecified)
inactive: dose: 50.0 mg/kg/injection, schedule: Q01DX009 (ip), vehicle: Klucel (hydroxypropylcellulose) (HPC) 96 % of control | [15] 103 % of control | [16] 103 % of control

CCc1nc2ccccc2c(=O)n1-c1ccc(Cl)cc1
inactive: dose: 50.0 mg/kg/injection, schedule: Q01DX009 (ip), vehicle: saline with Tween-80 92 % of control | [10] 95 % of control

CC(=O)c1ccccc1OC(F)(F)C(F)Cl (stereo unspecified)
inactive: [1] 101 % of control | [2] 103 % of control | [3] 103 % of control

O=[N+]([O-])c1cc[n+]([O-])cc1
inactive: dose: 6.25 mg/kg/injection, schedule: Q01DX009 (ip), vehicle: saline with Tween-80 98 % of control | dose: 6.25 mg/kg/injection, schedule: Q04DX003 (ip), vehicle: saline with Tween-80 96 % of control | dose: 12.5 mg/kg/injection, schedule: Q01DX009 (ip), vehicle: saline with Tween-80 96 % of control | dose: 12.5 mg/kg/injection, schedule: Q04DX003 (ip), vehicle: saline with Tween-80 96 % of control | dose: 25.0 mg/kg/injection, schedule: Q01DX009 (ip), vehicle: saline with Tween-80 91 % of control | dose: 25.0 mg/kg/injection, schedule: Q04DX003 (ip), vehicle: saline with Tween-80 95 % of control

COc1cc(Cl)c(CC(=O)c2c[nH]c3ccccc23)cc1OC
inactive: dose: 50.0 mg/kg/injection, schedule: Q01DX001 (ip), vehicle: saline 96 % of control | [1] 93 % of control | [17] 95 % of control | [2] 96 % of control | [18] 98 % of control | [3] 96 % of control | [19] 101 % of control

CC(=O)c1ccc(Oc2ccc([N+](=O)[O-])cc2)cc1
inactive: [7] 98 % of control | [8] 96 % of control | [9] 101 % of control

Cc1ncc(CO)c(Cc2ccccc2N(C)C)c1O
inactive: [20] 92 % of control | [21] 95 % of control

CCOc1ccc(N)c(O)c1
inactive: dose: 75.0 mg/kg/injection, schedule: Q01DX001 (ip), vehicle: carboxymethylcellulose (CMC) 98 % of control and 102 % of control | dose: 150.0 mg/kg/injection, schedule: Q01DX001 (ip), vehicle: carboxymethylcellulose (CMC) 93 % of control

CCCCCC(C)O[Si](C)c1cccc2ccccc12 (stereo unspecified)
inactive: [10] 98 % of control | dose: 100.0 mg/kg/injection, schedule: Q04DX003 (ip), vehicle: saline with Tween-80 92 % of control | [11] 93 % of control | dose: 200.0 mg/kg/injection, schedule: Q04DX003 (ip), vehicle: saline with Tween-80 92 % of control | [22] 104 % of control | dose: 400.0 mg/kg/injection, schedule: Q04DX003 (ip), vehicle: saline with Tween-80 101 % of control

O=S(=O)(O)OC1CCCC1S(=O)(=O)O (stereo unspecified)
inactive: dose: 50.0 mg/kg/injection, schedule: Q01DX001 (ip), vehicle: carboxymethylcellulose (CMC) 96 % of control | [4] 107 % of control | [5] 107 % of control | [6] 86 % of control

COc1ccccc1N1C(=O)CSC1=S
inactive: [10] 102 % of control | [11] 106 % of control | [22] 100 % of control

Nc1nc2ncnc(N)c2nc1-c1ccc(N(CCCl)CCCl)cc1
inactive: [1] 98 % of control | [2] 95 % of control | [3] 102 % of control

CCOP(=O)(OCC)C(O)c1cnc(SC)nc1N (stereo unspecified)
inactive: [17] 104 % of control | [12] 102 % of control | [18] 100 % of control | [13] 100 % of control | [19] 105 % of control | [14] 98 % of control

CSc1nc(SCc2ccccc2)[nH]c(=O)n1
inactive: [20] 98 % of control | [21] 117 % of control | dose: 400.0 mg/kg/injection, schedule: Q04DX002 (ip), vehicle: saline with Tween-80 98 % of control

O=Cc1ccc(OCc2cccc([N+](=O)[O-])c2)cc1
inactive: dose: 100.0 mg/kg/injection, schedule: Q01DX001 (ip), vehicle: Klucel (hydroxypropylcellulose) (HPC) 113 % of control | dose: 200.0 mg/kg/injection, schedule: Q01DX001 (ip), vehicle: Klucel (hydroxypropylcellulose) (HPC) 100 % of control | dose: 400.0 mg/kg/injection, schedule: Q01DX001 (ip), vehicle: Klucel (hydroxypropylcellulose) (HPC) 87 % of control

COCCNc1ccc(NCCOC)c2c1C(=O)c1ccccc1C2=O
inactive: dose: 87.5 mg/kg/injection, schedule: Q04DX003 (ip), vehicle: Klucel (hydroxypropylcellulose) (HPC) 91 % of control | dose: 175.0 mg/kg/injection, schedule: Q04DX003 (ip), vehicle: Klucel (hydroxypropylcellulose) (HPC) 91 % of control | dose: 350.0 mg/kg/injection, schedule: Q04DX003 (ip), vehicle: Klucel (hydroxypropylcellulose) (HPC) 88 % of control

CC(C)(N)CNC(C)(C)CO
inactive: dose: 50.0 mg/kg/injection, schedule: Q01DX009 (ip), vehicle: saline 102 % of control | [17] 102 % of control

O=C1c2ccc([N+](=O)[O-])cc2-n2cccc21
inactive: [7] 95 % of control | [8] 104 % of control | [9] 98 % of control

CCCCOC(=O)CCCC(=O)OCCCC
inactive: [15] 98 % of control | [7] 100 % of control | [16] 97 % of control | [8] 101 % of control | dose: 400.0 mg/kg/injection, schedule: Q01DX009 (ip), vehicle: Klucel (hydroxypropylcellulose) (HPC) 95 % of control | [9] 101 % of control
